Data published in patent publication US20260144769A1, “4-PHENYLBUTYRATE RESTORED GABA UPTAKE AND REDUCED SEIZURES IN SLC6A1 VARIANT-MEDIATED DISORDERS” (Vanderbilt University, priority 2022, published 2026).

How the values were obtained:
[1] = molecular target: GAT-1 E16X (Rattus norvegicus, UniProt P23978); experiment: 3H GABA uptake, corrected iPSC astrocytes transfected with GAT-1^YFP cDNA; format: cell-based; design: The coding region of rGAT-1 was inserted into pEYFP-C1 (Clontech, Palo Alto, CA); expressed in transfected cells; host or cells: human astrocytes differentiated from CRISPR-corrected patient iPSCs; conditions: 2 mM PBA, 24 hrs
Procedure: (§1) Live images of human neural progenitor cells (NPCs), astrocytes and GABAergic inhibitory neurons differentiated from the human induced pluripotent stem cells (iPSCs) on the day of experiment. […] The DMSO treated corrected or patient cells was taken as 1. […] GABA flux was measured after 30 min transport at room temperature. The influx of GABA, expressed in pmol/μg protein/min, was averaged from duplicates for each condition and for each transfection. The average counting was DMSO treated condition taken as 1. In FIG. 5B, FIG. 5D and FIG. 5F, 966 stands for CI-966 (50 μM) and 711 stands for NNC-711 (35 μM) that was applied 30 min to the astrocytes transfected with the wildtype GAT-1^YFP before preincubation and removed during preincubation. In FIGS. 5B and D, ***p<0.001 vs. corrected DMSO treated. § § <0.01, § § § p<0.001 vs. patient DMSO treated. […] In FIGS. 5B-E, n=4-8 batches of cells. In FIG. 5F, n=4-5 different transfections). Unpaired t test was used for FIG. 5C and FIG. 5E. […] Values were expressed as mean±S.E.M.). […]
(§2) Briefly, cells were cultured in […] dishes for 3 days before the GABA uptake experiment in DMEM with 10% fetal bovine serum and 1% penicillin/streptomycin. […] Glacial acetic acid was added, and lysates were then determined on a liquid scintillator with QuantaSmart. […]

[2] = molecular target: GAT-1 L460R (Rattus norvegicus, UniProt P23978, L460R); experiment: as above; format: cell-based; design: The coding region of rGAT-1 was inserted into pEYFP-C1 (Clontech, Palo Alto, CA); expressed in transfected cells; host or cells: human astrocytes differentiated from CRISPR-corrected patient iPSCs; conditions: 2 mM PBA, 24 hrs
Procedure: as §1, §2

Structure (SMILES): O=C(O)CCCc1ccccc1 [PBA, 4-phenylbutyric acid]
- GABA uptake normalized to its DMSO treated [1]: 1.182±0.025
- GABA uptake normalized to its DMSO treated [2]: 1.18±0.045
